From paper PMC3731320, “Identification of Benzimidazole Diamides as Selective Inhibitors of the Nucleotide-Binding Oligomerization Domain 2 (NOD2) Signaling Pathway” (PLoS ONE, 2013)
Where two headings read alike, the source gives them in different places.

Legend:
[1] = biological target: T1, full length human FLAG-6His tagged RIP2 (Homo sapiens, UniProt O43353); assay: RIP2 kinase autophosphorylation assay (ADP-Glo); assay type: biochemical; conditions: autophosphorylation of RIPK2; 10 μM ATP
T1 construct: autophosphorylation of full length human FLAG-6His tagged RIP2; FLAG; 6His; made in house
Method: Direct effects of compounds on RIP2 kinase activity was determined by autophosphorylation of full length human FLAG-6His tagged RIP2 expressed and purified from baculovirus. Enzyme was pre-incubated with compounds in assay buffer (50 mM HEPES pH 7.5, 25 mM MgCl2, 0.05%[w/v] CHAPS, 1 mM DTT and 0.05 mg/mL BSA) in 384-well plates, and then incubated with 10μM ATP for 2 hours at room temperature. The amount of ADP generated was measured using the ADP-Glo universal ADP detection assay for kinases (Promega) and luminescence quantified on a ViewLux imager.

[2] = system: NOD1; assay: Western blot of MAPK phosphorylation and IκBα in Tri-DAP-stimulated 293/hNOD1 cells; assay type: cell-based, human; conditions: GSK669 up to 30 μM
Method: (§1) Confluent cultures of 293/-hNOD1 and -hNOD2 cells in 24-well plates were serum-starved over-night. The next day, cells were pre-incubated for 1 hour with compound and then stimulated for 1 hour with either 50 μg/mL Tri-DAP or 25 μg/mL MDP, respectively. Whole cell lysates were prepared in 1X cell lysis buffer (Cell Signaling Technology) containing additional inhibitors of aspartic, cysteine and serine proteases and aminopeptidases (protease inhibitor cocktail set III, EMD Biosciences) and inhibitors of multiple phosphatases (phosphatase inhibitor cocktail sets II and III, Sigma-Aldrich). The levels of phosphorylated and total p38, JNK, ERK1/2 and total IκBα were determined by immunoblotting of ∼20 μg protein per sample using the following primary antibodies: phospho-p38 MAPK (12F8, #4631), p38 MAPK (#9212), phospho-JNK (#9251), JNK (#9252) and IκBα (#9242) all purchased from Cell Signaling Technology, and phospho-ERK1/2 (sc-7383) and ERK1/2 (sc-94) antibodies from Santa Cruz Biotechnology.

[3] = system: NOD2; assay: MDP-stimulated IL-8 secretion in NOD2 BacMam transduced HEK293T cells; assay type: cell-based, human
Method: (§2) Over-expression of NOD1 and NOD2 was achieved by transduction of HEK293T cells with either NOD1 or NOD2 BacMam recombinant baculoviruses. […] The effect of compounds on activator-independent NOD1/2 signaling was determined by 30 minute pre-treatment of cells (in 96-well plates seeded the previous day in DMEM high glucose with 10% FBS at 60,000 cells/well) followed by infection with NOD1 or NOD2 BacMam virus (MOI = 50). IL-8 was measured in conditioned medium after 24 hour incubation at 37 °C. To determine the effect of compounds on NOD1/2 activator-dependent IL-8 secretion in BacMam transduced HEK293T, the cells were infected with virus for 6 hours (MOI = 50), and following the removal of virus the cells were cultured over-night. The next day medium was again replaced and cells pre-treated with compound for 30 minutes followed by stimulation with either MDP (30 ng/mL) or iE-DAP (300 ng/mL). IL-8 was measured in conditioned medium by HTRF after 24-hour incubation at 37 °C.

[4] = system: 300 human kinases; assay: Kinase panel profiling (Reaction Biology Corp); assay type: biochemical; conditions: compound at 1 μM; 10 μM ATP; any kinase of the panel
Method: The original hit compound identified as a selective inhibitor of the NOD2 pathway was profiled for inhibitory activity against 300 human kinases (Reaction Biology Corp). The compound was tested in duplicate at a single concentration (1 μM) and was pre-incubated with enzyme for 20 minutes prior to addition of 10 μM ATP.

[5] = system: NOD2; assay: Western blot of MAPK phosphorylation and IκBα in MDP-stimulated 293/hNOD2 cells; assay type: cell-based, human; conditions: GSK669 at 1 and 10 μM
Method: as §1

[6] = system: NOD2; assay: MDP-stimulated IL-8 release in 293/hNOD2 cells (HTRF); assay type: cell-based, human; conditions: for IC50: Homo sapiens
Method: (§3) After 24 hours the amount of IL-8 secreted into the medium was determined by homogeneous time resolved fluorescence (HTRF) assay by the direct addition of a 1:1 mix of europium cryptate and XL665-conjugated anti-IL-8 antibodies according to the manufacturer's instructions (Cisbio).

[7] = system: TLR2; assay: Pam2CSK4-stimulated IL-8 release in 293/hTLR2 cells; assay type: cell-based, human; conditions: read-out: IC50 293/hTLR2 Pam2CSK4, IL-8 end-point, 3–10 ng/mL Pam2CSK4
Method: as §3

[8] = system: NOD2; assay: MDP-stimulated IL-8 release in HCT116 cells (endogenous NOD2); assay type: cell-based, human
Method: (§4) Compound activity on endogenous NOD1 and NOD2 receptors was determined by inhibition of either Tri-DAP or MDP-stimulated IL-8 release, respectively, using HCT116 human colon carcinoma cells. […] The cells were maintained in DMEM high glucose medium supplemented with 25 mM HEPES and 10% FBS. For assay, cells were seeded into 96 well plates (90,000 cells/well) in DMEM containing 1% FBS and pre-incubated with compounds for 1 hour before addition of either 1 μg/mL MDP or 25 μg/mL Tri-DAP. The level of IL-8 released into medium after 24-hour incubation was determined by HTRF assay as described above and fluorescence measured on an Envision model 2102 multilabel plate reader (Perkin Elmer).

[9] = system: NOD2; assay: IL-8 secretion induced by NOD2 over-expression (BacMam) in HEK293T cells, activator-independent; assay type: cell-based, human
Method: as §2

[10] = system: NOD2; assay: MDP-stimulated cytokine release in primary human monocytes; assay type: cell-based; conditions: primary human monocytes
Method: […] The concentration of IL-1β, IL-6 and TNFα in medium samples collected after 24-hour treatment was determined using the MS6000 human pro-inflammatory-4 II tissue culture kit (Meso Scale Discovery). The IL-8 concentration was determined by HTRF.

[11] = system: NOD1; assay: IL-8 secretion induced by NOD1 over-expression (BacMam) in HEK293T cells with or without iE-DAP; assay type: cell-based, human
Method: as §2

[12] = system: NOD1; assay: Tri-DAP-stimulated IL-8 release in HCT116 cells (endogenous NOD1); assay type: cell-based, human
Method: as §4

[13] = system: NOD1; assay: iE-DAP-stimulated IL-8 release in 293/hNOD1 cells (HTRF); assay type: cell-based, human; conditions: 60 ng/mL iE-DAP
Method: as §3

[14] = MOI 50, 24 hours, GSK669 5 μM, IKK inhibitor 0.5 μM

T1 sequence (O43353 whole entry): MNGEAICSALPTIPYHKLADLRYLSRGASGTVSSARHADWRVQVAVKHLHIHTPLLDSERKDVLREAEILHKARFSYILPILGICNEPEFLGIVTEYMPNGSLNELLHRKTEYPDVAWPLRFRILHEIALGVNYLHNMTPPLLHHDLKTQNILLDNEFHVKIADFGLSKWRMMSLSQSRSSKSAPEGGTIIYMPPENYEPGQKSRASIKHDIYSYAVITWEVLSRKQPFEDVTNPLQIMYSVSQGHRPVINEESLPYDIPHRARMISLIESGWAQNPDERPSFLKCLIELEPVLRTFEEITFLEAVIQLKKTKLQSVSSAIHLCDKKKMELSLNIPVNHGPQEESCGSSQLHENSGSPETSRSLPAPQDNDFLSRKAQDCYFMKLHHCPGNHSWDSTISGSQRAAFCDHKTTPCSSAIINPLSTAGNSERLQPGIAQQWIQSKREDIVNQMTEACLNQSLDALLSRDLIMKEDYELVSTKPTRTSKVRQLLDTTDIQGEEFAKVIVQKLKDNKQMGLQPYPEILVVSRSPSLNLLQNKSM

O=C(Cn1c(CCNC(=O)c2ccccc2)nc2ccccc21)Nc1ccc2c(c1)CCC2 [Compound 1, N-(2-(1-(2-((2,3-dihydro-1H-inden-5-yl)amino)-2-oxoethyl)-1H-benzo[d]imidazol-2-yl)ethyl)benzamide]
IC50 [1]: > 100 µM
effect on Tri-DAP-induced p-p38, p-JNK and total IκBα [2]: inactive
effect on MDP response in NOD2 transduced cells, single concentration ([3]; HEK293T, 6 hours virus then MDP 30 ng/mL, GSK669 5 μM, IKK inhibitor 0.5 μM): selectively blocked the MDP response
IC50 ([3]; Homo sapiens, HEK-293T, 6 hours transduction, then MDP 30 ng/mL 24 hours, IL-8, read-out: IC50, MDP response in NOD2 transduced HEK293T cells): 0.5 µM
inhibition of kinase activity, panel of 300 human kinases [4]: ≤ 50%
effect on MDP-induced p-p38, p-JNK and total IκBα [5]: prevented MDP-induced increases in p-p38 and p-JNK and MDP-induced reduction in total IκBα
IC50 ([6]; read-out: IC50 293/hNOD2 MDP): 3.2 µM
IC50 ([6]; MDP-stimulated IL-8 production assay in 293/hNOD2 cells, Figures 4 and 5, read-out: NOD2 IC50): 3.3 ± 1.6 µM
fold less active in the selectivity assays than on the NOD2 pathway ([6]; all selectivity assays vs NOD2 IC50): at least 10 fold
IC50 ([7]; listed as GSK669): > 30 µM
IC50 ([7]; listed as GSK669 (1)): > 80 µM
IC50 ([8]; Homo sapiens, HCT-116, IL-8 end-point, 1 μg/mL MDP): 0.5 ± 0.2 µM
effect on IL-8 secretion induced by MDP in HCT116 cells ([8]; MDP 1 μg/mL, 1 hour pre-treatment): dose-dependently inhibited
effect on IL-8 secretion induced by NOD2 virus alone, single concentration [9, 14]: failed to block IL-8 secretion
effect on IL-8 secretion induced by NOD2 over-expression ([9]; NOD2 virus 24 hours, GSK669 up to 50 μM): failed to inhibit this response
effect on MDP-stimulated cytokine secretion, single concentration ([10]; compound 5 μM, MDP 0.1 μg/mL, IL-1β, IL-6, IL-8, TNFα, 24 hours): partial inhibition
effect on release of IL-8, IL-6, TNFα and IL-1β in monocytes stimulated with MDP ([10]; dose response): dose-dependently inhibited
effect on IL-8 secretion induced by NOD1 virus alone, single concentration [11, 14]: failed to block IL-8 secretion
effect on IL-8 secretion induced by over-expression of NOD1 ([11]; in the presence or absence of iE-DAP): had no effect
IC50 ([12]; Homo sapiens, HCT-116, IL-8 end-point, 25 μg/mL Tri-DAP): > 50 µM
effect on IL-8 secretion induced by Tri-DAP in HCT116 cells ([12]; Tri-DAP 25 μg/mL, 1 hour pre-treatment): had no effect
IC50 ([13]; Homo sapiens, read-out: IC50 293/hNOD1 iE-DAP, IL-8 end-point): > 30 µM
IC50 ([13]; read-out: IC50 293/hNOD1 iE-DAP, IL-8 end-point, listed as GSK669 (1)): > 50 µM
